Data reported in US8735167B2, “Photoinduced signal amplification through externally sensitized photofragmentation in masked photosensitizers and photoamplified fluorescence turn-off system” (Colorado Seminary, which owns and operates The University …, priority 2007, dated 2014).
Blank lines part the entries; values can stand above or below the molecule they belong to.

How the values were obtained:
[1] = 19F PFG NMR diffusion in ionic liquid; format: physicochemical; settings: in N-methyl-N,N,N-trioctylammonium bis-triflylamide
Text: Another use of ionic liquids for photoamplified bioanalytical methods is for electrochemical detection. […] Unmasking of the sensitizer dramatically changes the redox properties of the system which can be utilized in electrochemical detection of photoamplification. Again, as mentioned above, ionic liquids can be gelated and used in a form of pixilated bioanalytical array. […] The ^19F PFG NMR measurements of diffusion of 4-(trifluoromethyl)benzophenone in N-methyl-N,N,N-trioctylammonium bis-triflylamide produced the translational diffusion coefficient of 9×10^−7 cm^2 s^−1, which is still adequate for bimolecular collisional quenching of triplet benzophenone, necessary for the photoamplification. N-Methyl-N,N,N-trioctylammonium bis-triflylamide is the most viscous ionic liquid which we tested in our experiments. Other, much less viscous ionic liquids, for example N,N-dimethyl-N,N-dihexylammonium bis-triflylamide, performed even better.

[2] = Pulse Field Gradient 19F NMR diffusion in N-n-octadecylurea organogels made in t-butyl benzene; format: physicochemical
Text: The PFG NMR experiments allow for measuring diffusion coefficients of molecules of interest in complex mixtures, including gels. The successful photoamplification relies on adequate diffusion coefficients. The diffusion coefficients obtained for 4-trifluoromethylbenzophenone in gelated tert-butylbenzene and other solvents were within 10-15% of that in free (not gelated) solvents, which means that the gelation has no detrimental effect on photochemistry.

[3] = in non-polar solvents; cited from earlier work
[4] = Stern-Volmer fluorescence quenching of p-terphenyl; format: physicochemical; set-up: unit not given here; settings: p-terphenyl 10^−5 M
Text: p-Oligophenylenes are known as durable fluorophores, and commonly used as a dye in dye lasers due to their resistance to photobleaching, a desirable characteristic for this application.

[5] = Stern-Volmer fluorescence quenching of fluorene; format: physicochemical; set-up: unit not given here; settings: fluorene 10^−5 M, in CH2Cl2
[6] = near diffusion controlled; previously shown; cited from earlier work

translational diffusion coefficient [1]: 9×10^−7 cm^2 s^−1
Diffusion Coefficient ([2]; 0 % N-n-Octadecylurea, t-butyl benzene): 6.50 × 10^−6 cm^2 s^−1
Diffusion Coefficient ([2]; 2 % N-n-Octadecylurea, t-butyl benzene organogel): 5.32 × 10^−6 cm^2 s^−1
Diffusion Coefficient ([2]; 4 % N-n-Octadecylurea, t-butyl benzene organogel): 5.60 × 10^−6 cm^2 s^−1
Diffusion Coefficient ([2]; 6 % N-n-Octadecylurea, t-butyl benzene organogel): 5.34 × 10^−6 cm^2 s^−1
Difference of diffusion coefficient in gelated solvent from that in free (not gelated) solvent ([2]; gelated tert-butylbenzene and other solvents): 10-15%
Compound: O=C(c1ccccc1)c1ccc(C(F)(F)F)cc1 [4-trifluoromethyl-benzophenone, 4-trifluoromethylbenzophenone]

Ksv, fluorescence quenching of p-terphenyl ([4]; in CH2Cl2): smaller than for MDT BP adduct
Compound: OC(c1ccccc1)c1ccccc1 [benzhydrol]

Ksv, fluorescence quenching of p-terphenyl ([4]; in CH2Cl2): smaller than for MDT BP adduct
Compound: CC1SCCCS1 [dithiane, 2-methyl-1,3-dithiane]

The remaining lines, values behind:

Compound: c1ccc2c(c1)Cc1ccccc1-2 [Fluorene]
fluorescence lifetime [3]: 10 ns

Compound: CC1(C(O)(c2ccccc2)c2ccccc2)SCCCS1 [MDT BP adduct, 2-methyl-1,3-dithiane benzophenone adduct]
Ksv, fluorescence quenching of p-terphenyl ([4]; in CH2Cl2): 80
Ksv, fluorescence quenching of p-terphenyl ([4]; in t-BuPh): 40
Ksv, fluorescence quenching of fluorene [5]: 2300
rate of quenching of benzophenone triplet via electron transfer reduction [6]: 10^9 M^−1 s^−1
